The target of assay [1] is Glutamate receptor ionotropic, kainate 2 (Homo sapiens, UniProt Q13002). Description: Displacement of [3H]kianic acid from recombinant GluK2 kainate receptor (unknown origin) expressed in HEK293 cell membranes measured after 1 hr.
The target in assay [2] is Glutamate receptor ionotropic, kainate 1 (Homo sapiens, UniProt P39086). The experiment in a line: Displacement of [3H]kianic acid from recombinant GluK1 kainate receptor (unknown origin) expressed in HEK293 cell membranes measured after 1 hr. On the technique in general: In a radioligand displacement assay an active substance lowers the binding of a labelled ligand.
Glutamate receptor ionotropic, kainate 1, sequence (P39086 whole entry): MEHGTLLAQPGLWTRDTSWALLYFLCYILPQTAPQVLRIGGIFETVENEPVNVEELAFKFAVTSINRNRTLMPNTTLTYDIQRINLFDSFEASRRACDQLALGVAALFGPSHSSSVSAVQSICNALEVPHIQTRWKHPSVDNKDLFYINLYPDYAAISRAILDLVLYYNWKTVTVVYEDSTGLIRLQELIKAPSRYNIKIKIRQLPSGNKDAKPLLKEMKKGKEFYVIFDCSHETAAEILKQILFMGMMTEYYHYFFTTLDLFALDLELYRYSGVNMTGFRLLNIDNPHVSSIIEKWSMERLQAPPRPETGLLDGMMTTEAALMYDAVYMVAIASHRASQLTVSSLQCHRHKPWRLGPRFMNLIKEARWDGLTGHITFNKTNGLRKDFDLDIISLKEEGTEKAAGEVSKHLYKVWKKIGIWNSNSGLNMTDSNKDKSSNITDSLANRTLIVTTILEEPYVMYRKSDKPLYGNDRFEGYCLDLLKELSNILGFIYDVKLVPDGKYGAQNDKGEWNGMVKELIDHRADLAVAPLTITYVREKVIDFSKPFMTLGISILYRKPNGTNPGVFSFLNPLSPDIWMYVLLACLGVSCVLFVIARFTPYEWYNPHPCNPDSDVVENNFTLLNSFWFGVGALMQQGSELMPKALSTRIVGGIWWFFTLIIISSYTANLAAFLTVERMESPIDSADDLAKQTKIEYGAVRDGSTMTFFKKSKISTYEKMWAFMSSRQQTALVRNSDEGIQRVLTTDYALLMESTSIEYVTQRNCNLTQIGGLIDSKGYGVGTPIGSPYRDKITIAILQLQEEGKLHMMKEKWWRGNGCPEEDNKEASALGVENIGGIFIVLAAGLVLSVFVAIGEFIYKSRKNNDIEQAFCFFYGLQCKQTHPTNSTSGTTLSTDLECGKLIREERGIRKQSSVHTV

Glutamate receptor ionotropic, kainate 2, sequence (Q13002 whole entry): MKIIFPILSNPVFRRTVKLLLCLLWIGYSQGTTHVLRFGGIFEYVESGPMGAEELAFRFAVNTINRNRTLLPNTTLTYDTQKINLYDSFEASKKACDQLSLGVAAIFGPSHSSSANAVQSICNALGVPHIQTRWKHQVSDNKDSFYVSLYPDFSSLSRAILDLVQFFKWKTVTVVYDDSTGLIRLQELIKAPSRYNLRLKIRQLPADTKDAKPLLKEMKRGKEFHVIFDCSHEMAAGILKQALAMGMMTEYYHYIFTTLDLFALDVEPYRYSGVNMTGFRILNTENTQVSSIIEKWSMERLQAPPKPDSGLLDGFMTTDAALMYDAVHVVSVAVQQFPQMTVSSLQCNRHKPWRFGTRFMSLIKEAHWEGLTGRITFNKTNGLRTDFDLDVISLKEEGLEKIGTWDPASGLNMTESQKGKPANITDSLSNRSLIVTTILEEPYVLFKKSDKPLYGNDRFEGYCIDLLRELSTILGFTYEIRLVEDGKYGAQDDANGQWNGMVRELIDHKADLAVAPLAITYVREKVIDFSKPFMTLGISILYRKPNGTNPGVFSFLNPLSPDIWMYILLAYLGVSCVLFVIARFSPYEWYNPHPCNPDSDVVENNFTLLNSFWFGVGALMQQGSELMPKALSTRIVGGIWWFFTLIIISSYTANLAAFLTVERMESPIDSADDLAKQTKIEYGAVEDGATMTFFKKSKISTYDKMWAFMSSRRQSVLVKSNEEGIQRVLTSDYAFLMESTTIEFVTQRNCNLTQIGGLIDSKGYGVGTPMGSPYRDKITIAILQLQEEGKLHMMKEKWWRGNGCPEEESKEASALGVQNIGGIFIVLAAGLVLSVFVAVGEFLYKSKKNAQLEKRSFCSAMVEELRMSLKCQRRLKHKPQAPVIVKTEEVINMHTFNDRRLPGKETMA

Consider `CN[C@H]1[C@H]2O[C@@](C[C@H](N)C(=O)O)(C(=O)O)C[C@H]2OC[C@H]1O` [DYSIHERBAINE], for which the Ki in assay [1] came to 1.2 nM; in assay [2], 0.74 nM.

What is called Ki is the equilibrium dissociation constant of an inhibitor or competing ligand from its target.

The record behind these values is ChEMBL document CHEMBL3864136, “A monocyclic neodysiherbaine analog: Synthesis and evaluation” (Bioorg Med Chem Lett, 2016).
